#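 Here, GI50 denotes the concentration required for 50% inhibition of growth. TGI marks complete inhibition of growth.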
# How the values were obtained:
# Assay in all cases: DTP human tumour cell line panel, 384-well format
# OVCAR-3 ovarian = test system: OVCAR-3 ovarian
# KM12 colon = test system: KM12 colon
# EKVX NSCLC = test system: EKVX NSCLC
# MALME-3M melanoma = test system: MALME-3M melanoma
# HOP-92 NSCLC = test system: HOP-92 NSCLC
# SW-620 colon = test system: SW-620 colon
# SNB-19 CNS = test system: SNB-19 CNS
# HCT-15 colon = test system: HCT-15 colon
# DU-145 prostate = test system: DU-145 prostate
# HT29 colon = test system: HT29 colon
# NCI-H522 lung = test system: NCI-H522 lung
# SF-268 CNS = test system: SF-268 CNS
# NCI-H23 lung = test system: NCI-H23 lung
# SF-295 CNS = test system: SF-295 CNS
# BT-549 breast = test system: BT-549 breast
# SNB-75 CNS = test system: SNB-75 CNS
# PC-3 prostate = test system: PC-3 prostate
# SK-MEL-5 melanoma = test system: SK-MEL-5 melanoma
# OVCAR-8 ovarian = test system: OVCAR-8 ovarian
# MCF7 breast = test system: MCF7 breast
# UACC-257 melanoma = test system: UACC-257 melanoma
# IGROV1 ovarian = test system: IGROV1 ovarian
# SK-OV-3 ovarian = test system: SK-OV-3 ovarian
# COLO 205 colon = test system: COLO 205 colon
# SF-539 CNS = test system: SF-539 CNS
# U251 glioblastoma = test system: U251 glioblastoma
# HL-60(TB) leukemia = test system: HL-60(TB) leukemia
# HCC-2998 colon = test system: HCC-2998 colon
# UO-31 renal = test system: UO-31 renal
# M14 melanoma = test system: M14 melanoma
# MDA-MB-468 breast = test system: MDA-MB-468 breast
# NCI/ADR-RES ovarian = test system: NCI/ADR-RES ovarian
# HS 578T breast = test system: HS 578T breast
# NCI-H460 NSCLC = test system: NCI-H460 NSCLC
# T-47D breast = test system: T-47D breast
# MDA-MB-435 melanoma = test system: MDA-MB-435 melanoma
# UACC-62 melanoma = test system: UACC-62 melanoma
# CCRF-CEM leukemia = test system: CCRF-CEM leukemia
# NCI-H322M lung = test system: NCI-H322M lung
# OVCAR-4 ovarian = test system: OVCAR-4 ovarian
# SN12C renal = test system: SN12C renal
# TK-10 renal = test system: TK-10 renal
# MOLT-4 leukemia = test system: MOLT-4 leukemia
# RXF 393 renal = test system: RXF 393 renal
# LOX IMVI melanoma = test system: LOX IMVI melanoma
# NCI-H226 lung = test system: NCI-H226 lung
# A549 NSCLC = test system: A549 NSCLC
# CAKI-1 renal = test system: CAKI-1 renal
# HCT-116 colon = test system: HCT-116 colon
# RPMI-8226 leukemia = test system: RPMI-8226 leukemia
# OVCAR-5 ovarian = test system: OVCAR-5 ovarian
# SK-MEL-28 melanoma = test system: SK-MEL-28 melanoma
# A498 renal = test system: A498 renal
# HOP-62 NSCLC = test system: HOP-62 NSCLC
# SR leukemia = test system: SR leukemia
# MDA-MB-231 breast = test system: MDA-MB-231 breast
# 786-0 renal = test system: 786-0 renal
# ACHN renal = test system: ACHN renal
smiles,measurement,setting,value
CN1CCN(c2ccc(Nc3ncc4cc5n(c4n3)C3(CCCCC3)CNC5=O)nc2)CC1,GI50,OVCAR-3 ovarian,3.05 µM
same,TGI,OVCAR-3 ovarian,7.81 µM
same,GI50,KM12 colon,1.34 µM
same,TGI,KM12 colon,14.3 µM
same,GI50,EKVX NSCLC,3.11 µM
same,TGI,EKVX NSCLC,11 µM
same,GI50,MALME-3M melanoma,1.45 µM
same,TGI,MALME-3M melanoma,4.22 µM
same,GI50,HOP-92 NSCLC,2.28 µM
same,TGI,HOP-92 NSCLC,> 24.2 µM
same,GI50,SW-620 colon,1.09 µM
same,TGI,SW-620 colon,10.2 µM
same,GI50,SNB-19 CNS,3.99 µM
same,TGI,SNB-19 CNS,> 52.6 µM
same,GI50,HCT-15 colon,2.14 µM
same,TGI,HCT-15 colon,9.25 µM
same,GI50,DU-145 prostate,3.22 µM
same,TGI,DU-145 prostate,9.41 µM
same,GI50,HT29 colon,1.46 µM
same,TGI,HT29 colon,12.1 µM
same,GI50,NCI-H522 lung,7.65 µM
same,TGI,NCI-H522 lung,18.9 µM
same,GI50,SF-268 CNS,1.81 µM
same,TGI,SF-268 CNS,4.14 µM
same,GI50,NCI-H23 lung,1.81 µM
same,TGI,NCI-H23 lung,3.83 µM
same,GI50,SF-295 CNS,1.75 µM
same,TGI,SF-295 CNS,7.59 µM
same,GI50,BT-549 breast,2 µM
same,TGI,BT-549 breast,3.9 µM
same,GI50,SNB-75 CNS,1.89 µM
same,TGI,SNB-75 CNS,4.35 µM
same,GI50,PC-3 prostate,2.71 µM
same,TGI,PC-3 prostate,> 39 µM
same,GI50,SK-MEL-5 melanoma,2.39 µM
same,TGI,SK-MEL-5 melanoma,12.7 µM
same,GI50,OVCAR-8 ovarian,3.57 µM
same,TGI,OVCAR-8 ovarian,10.5 µM
same,GI50,MCF7 breast,1.39 µM
same,TGI,MCF7 breast,9.19 µM
same,GI50,UACC-257 melanoma,5.59 µM
same,TGI,UACC-257 melanoma,17.4 µM
same,GI50,IGROV1 ovarian,4.12 µM
same,TGI,IGROV1 ovarian,> 100 µM
same,GI50,SK-OV-3 ovarian,5.23 µM
same,TGI,SK-OV-3 ovarian,> 42.6 µM
same,GI50,COLO 205 colon,0.844 µM
same,TGI,COLO 205 colon,5.67 µM
same,GI50,SF-539 CNS,1.75 µM
same,TGI,SF-539 CNS,3.44 µM
same,GI50,U251 glioblastoma,3.14 µM
same,TGI,U251 glioblastoma,15.2 µM
same,GI50,HL-60(TB) leukemia,0.139 µM
same,TGI,HL-60(TB) leukemia,1.77 µM
same,GI50,HCC-2998 colon,2.35 µM
same,TGI,HCC-2998 colon,5.48 µM
same,GI50,UO-31 renal,1.36 µM
same,TGI,UO-31 renal,> 23.3 µM
same,GI50,M14 melanoma,1.48 µM
same,TGI,M14 melanoma,4.85 µM
same,GI50,MDA-MB-468 breast,4.26 µM
same,TGI,MDA-MB-468 breast,10.8 µM
same,GI50,NCI/ADR-RES ovarian,8.49 µM
same,TGI,NCI/ADR-RES ovarian,23.8 µM
same,GI50,HS 578T breast,2.09 µM
same,TGI,HS 578T breast,4.09 µM
same,GI50,NCI-H460 NSCLC,1.33 µM
same,TGI,NCI-H460 NSCLC,3.74 µM
same,GI50,T-47D breast,7.74 µM
same,TGI,T-47D breast,23.3 µM
same,GI50,MDA-MB-435 melanoma,4.34 µM
same,TGI,MDA-MB-435 melanoma,24.8 µM
same,GI50,UACC-62 melanoma,1.69 µM
same,TGI,UACC-62 melanoma,7.78 µM
same,GI50,CCRF-CEM leukemia,0.399 µM
same,TGI,CCRF-CEM leukemia,1.81 µM
same,GI50,NCI-H322M lung,2.17 µM
same,TGI,NCI-H322M lung,7.5 µM
same,GI50,OVCAR-4 ovarian,5.31 µM
same,TGI,OVCAR-4 ovarian,14.6 µM
same,GI50,SN12C renal,1.83 µM
same,TGI,SN12C renal,7.87 µM
same,GI50,TK-10 renal,2.94 µM
same,TGI,TK-10 renal,15.3 µM
same,GI50,MOLT-4 leukemia,0.116 µM
same,TGI,MOLT-4 leukemia,0.931 µM
same,GI50,RXF 393 renal,2.15 µM
same,TGI,RXF 393 renal,4.02 µM
same,GI50,LOX IMVI melanoma,0.993 µM
same,TGI,LOX IMVI melanoma,3.02 µM
same,GI50,NCI-H226 lung,0.362 µM
same,TGI,NCI-H226 lung,4.23 µM
same,GI50,A549 NSCLC,1.65 µM
same,TGI,A549 NSCLC,9.44 µM
same,GI50,CAKI-1 renal,1.21 µM
same,TGI,CAKI-1 renal,> 40.5 µM
same,GI50,HCT-116 colon,1.41 µM
same,TGI,HCT-116 colon,5.38 µM
same,GI50,RPMI-8226 leukemia,0.245 µM
same,TGI,RPMI-8226 leukemia,1.5 µM
same,GI50,OVCAR-5 ovarian,2.04 µM
same,TGI,OVCAR-5 ovarian,> 100 µM
same,GI50,SK-MEL-28 melanoma,2.47 µM
same,TGI,SK-MEL-28 melanoma,14.5 µM
same,GI50,A498 renal,3.03 µM
same,TGI,A498 renal,14.5 µM
same,GI50,HOP-62 NSCLC,1.99 µM
same,TGI,HOP-62 NSCLC,6.75 µM
same,GI50,SR leukemia,0.0408 µM
same,TGI,SR leukemia,0.196 µM
same,GI50,MDA-MB-231 breast,0.796 µM
same,TGI,MDA-MB-231 breast,3.23 µM
same,GI50,786-0 renal,2.34 µM
same,TGI,786-0 renal,> 100 µM
same,GI50,ACHN renal,1.63 µM
same,TGI,ACHN renal,> 100 µM

# Source: PubChem BioAssay (NCI)
